Assay results reported in patent US8034382B2, “Preparation method for biodegradable micro-particles containing drugs” (The Board of Trustees of the University of Arkansas, priority 2008, dated 2011).

Columns and labels:
[1] = Release kinetics of leuprolide acetate from PLGA microparticles (UV absorption of supernatant); type: physicochemical
Experimental: The release kinetics of leuprolide acetate from the PLGA microparticles prepared as described herein was determined and the results are shown in FIG. 1. Concentration of drug in the supernatant was measured by ultraviolet absorption. […] Initial burst release occurs due to the fast dissolution of peptide located at the microparticle surface followed by a time lag of 4-5 days. […] During the middle portion of the curve, peptide release occurs at a near constant rate.
FIG. 2 compares the release curve of FIG. 1 for 10% RG 502H with a published release curve for leuprolide acetate from microparticles formed by conventional oil-in-water emulsion with poly(vinyl alcohol) as emulsifier (D'Souza et al., 2005, AAPS PHARM. Sci. Tech. 6(4), E553).

[2] = Encapsulation efficiency of drug in PLA/PLGA microparticles prepared with hydroxyapatite gel (UV absorption); type: physicochemical; details: for pH of aqueous suspension giving best encapsulation efficiency: hydroxyapatite gel suspension, PLA/PLGA polymers
Experimental: Leuprolide acetate and poly(lactic acid-co-glycolic acid) (PLGA) RG502H or PLA R202H were dissolved in a 24/76 (v/v) methanol/dichloromethane mixture at a concentration of 20% polymer and 10% leuprolide (w/v) to prepare the polymer-drug solution. An aqueous suspension of hyroxyapatite was prepared by dissolving 6 g of CaO in 400 ml water. Then phosphoric acid was added to adjust the pH of the aqueous suspension to between 9.0 and 10.0. Hydroxyapatite gel was formed in situ in the aqueous suspension under these conditions by the reaction 10 CaO+6 H3PO4=Ca10(PO4)6(OH)2+8 H2O. The drug/polymer solution (2 or 3 ml) was dispersed into the aqueous suspension medium. The dispersion was initially homogenized by a high-shear mixer at 5,000 or more rpm for 5 minutes. The solvents were then evaporated by stirring at 600 rpm for 1 hour or longer. Then concentrated HCl was added slowly until the hydroxyapatite dissolved and the suspension cleared. Hydroxyapatite is dissolved by the reaction Ca10(PO4)6(OH)2+20 HCl=10 CaCl2+6 H3PO4+2 H2O. The solidified microparticles were recovered by centrifugation and filtration.
Encapsulation efficiency refers to the mass of drug recovered in microparticles divided by the starting mass of drug in the polymer-drug phase. To quantify drug in microparticles, the microparticles were first dissolved in an ethanol/dichloroethane (28/72 v/v) mixture. The drug content of the solution was then measured by ultraviolet absorption.
In other experiments, the pH of the suspending medium was varied. […] Small anionic and cationic small molecule drugs were also tested. […] Verapamil HCl and nicardipine HCl were the small-molecule amine-containing drugs tested. Piroxicam, […], and salicylic acid were the small molecule anionic drugs tested.

## CCNC(=O)[C@@H]1CCCN1C(=O)[C@H](CCCNC(=N)N)NC(=O)[C@H](CC(C)C)NC(=O)[C@@H](CC(C)C)NC(=O)[C@H](Cc1ccc(O)cc1)NC(=O)[C@H](CO)NC(=O)[C@H](Cc1c[nH]c2ccccc12)NC(=O)[C@H](Cc1c[nH]cn1)NC(=O)[C@@H]1CCC(=O)N1 [leuprolide acetate, Leuprolide acetate]
[1]; 10% RG 502H, FIG. 2, versus D'Souza et al. 2005
  Release curve compared with published curve for conventional o/w emulsion (poly(vinyl alcohol)) microparticles: nearly identical
[1]; PLGA microparticles, FIG. 1
  Release profile (shape): typical tri-phase
  Time lag after initial burst release: 4 to 5 days
[2]; pH of the suspending medium 7.0
  Encapsulation efficiency: 90%
[2]; pH of the suspending medium pH 9.0 to pH 10.0, hydroxyapatite gel
  Encapsulation efficiency: ≥ 95%

## COc1ccc2cc([C@H](C)C(=O)O)ccc2c1 [naproxen acid]
[2]
  pH of aqueous suspension giving best encapsulation efficiency: ~5.0

## CN1C(C(=O)Nc2ccccn2)=C(O)c2ccccc2S1(=O)=O [piroxicam]
[2]
  pH of aqueous suspension giving best encapsulation efficiency: ~5.0

## O=C(O)c1ccccc1O [salicylic acid]
[2]
  pH of aqueous suspension giving best encapsulation efficiency: ~5.0
